# Measured values as given in US4721775A, “Effective peptides related to the luteinizing hormone releasing hormone from L-amino acids” (Board of Regents, The University of Texas System, priority 1985, dated 1988).
# Several values for one entry are separate records, joined by “and”; a condition that tells them apart may be missing. Equal values may be shown once. Entries after “also recorded” stand apart in the source; their conditions may differ.
# Columns and labels:
# release of FSH [1] = test: Release of FSH in rats after sc injection; format: in vivo; conditions: dose and time as stated in the source
# release of FSH [2] = test: Release of FSH in rats after sc injection; format: in vivo; conditions: release 60 min. after sc injection
# Excerpt: (§1) The data on the release of LH and FSH in rats by modifications of LHRH with one structural change are in Table II.
# (§2) Exclusive of the salmon-LHRH, only one of the six decapeptides with two structural changes had significant activity.
# [3] = relative to LHRH; cited from earlier work
# release of LH = test: Release of LH in rats after sc injection; format: in vivo; conditions: for LH: release 60 min. after sc injection
# Excerpt: as §1, §2
# [4] = relative to LHRH; cited from earlier work; remark: listed apart in the source
# ovulation = conditions: 250 ng; rats; cited from earlier work
molecule,measurement,setting,value
"N=C(N)NCCC[C@H](NC(=O)[C@H](Cc1c[nH]c2ccccc12)NC(=O)CNC(=O)[C@H](Cc1ccc(O)cc1)NC(=O)[C@H](CO)NC(=O)[C@H](Cc1c[nH]c2ccccc12)NC(=O)[C@H](Cc1c[nH]cn1)NC(=O)[C@@H]1CCC(=O)N1)C(=O)N1CCC[C@H]1C(=O)NCC(N)=O [[Trp^7]--LHRH, p-Glu His Trp Ser Tyr Gly Trp Arg Pro Gly-NH2]",release of FSH compared with LHRH,release of FSH [1],as active as LHRH; also recorded: equivalent to LHRH in the release of both LH and FSH
same,FSH,release of FSH [2]; dosage of peptide 300 ng,543 ng/mL
same,FSH,release of FSH [2]; dosage of peptide 3000 ng,1259 ng/mL
same,agonist activity in vivo,[3],80%
same,LH,release of LH; dosage of peptide 300 ng,14.5 ng/mL
same,LH,release of LH; dosage of peptide 3000 ng,115 ± 19 ng/mL and 115 ng/mL
same,release of LH compared with LHRH,"release of LH; sc injection, dose and time as stated in the source",as active as LHRH at two dose levels; also recorded: equivalent to LHRH in the release of both LH and FSH
[3(2-Nal)^3 ]-LHRH,"agonist activity in vitro, as active as LHRH",[4],200%
"[Ala^9 ]-LHRH (QHWSYGLRAG; Gonadoliberin-1; UniProt P01148 24-33, looked up, variant P9A) [literature agonist analog of LHRH]","agonist activity in vitro, as active as LHRH",[4],65%
"[N-Ac-D-2-Nal^1, D-pClPhe^2, D-3-Pal^3, D-Arg^6, Trp^7, D-Ala10 ]-LHRH",antiovulatory activity,ovulation,ca. 90%
[N-MeLeu^7 ]-LHRH,"agonist activity in vitro, as active as LHRH",[4],100%
"[Phe^5 ]-LHRH (QHWSFGLRPG; Gonadoliberin-1; UniProt P01148 24-33, looked up, variant Y5F) [literature agonist analog of LHRH, reference compound]",agonist activity in vivo,[3],64%
